Measurements taken from patent US20230085307A1, “PYRIDAZINONE COMPOUND AND HERBICIDE” (NISSAN CHEMICAL CORPORATION, priority 2019, published 2023).

Key:
barnyard grass [1] = assay: Test Example 5: herbicidal effect by foliage application, plastic box (Table 20, symbol H); format: in vivo, barnyard grass (Echinochloa crus-galli); conditions: foliage application after 14-day growth, evaluated three weeks after application; for Herbicidal effect by foliage application, H: barnyard grass: amount of applied herbicide 320 g/ha
Method in brief: (§1)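 Foliar spray test: emulsion formulation diluted in water to a set application rate, sprayed onto 14-day-old plants raised in diluvial soil at 25° C to 30° C under glass. Both herbicidal effect and crop effect rated visually three weeks later.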

redroot pigweed = assay: Test Example 5: herbicidal effect by foliage application, plastic box (Table 20, symbol N); format: in vivo, redroot pigweed (Amaranthus retroflexus); conditions: foliage application after 14-day growth, evaluated three weeks after application; for Herbicidal effect by foliage application, N: redroot pigweed: amount of applied herbicide 320 g/ha
Method in brief: as §1

green foxtail = assay: Test Example 5: herbicidal effect by foliage application, plastic box (Table 20, symbol G); format: in vivo, green foxtail (Setaria viridis); conditions: foliage application after 14-day growth, evaluated three weeks after application; for Herbicidal effect by foliage application, G: green foxtail: amount of applied herbicide 320 g/ha
Method in brief: as §1

barnyard grass [2] = assay: Test Example 3: herbicidal effect by foliage application, Wagner pot (Table 18, symbol H); format: in vivo, barnyard grass (Echinochloa crus-galli); conditions: 320 g/ha
Method in brief: (§2)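 Plants were sown in alluvial soil held under 0.1–0.5 cm standing water and grown 14 days in a greenhouse at 25–30 °C. An emulsifiable formulation, water-diluted to the set dose, was then sprayed onto the foliage, and effects were scored three weeks later using previously defined criteria.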

rice flat sedge = assay: Test Example 3: herbicidal effect by foliage application, Wagner pot (Table 18, symbol E); format: in vivo, rice flat sedge (Cyperus iria); conditions: 320 g/ha
Method in brief: as §2

blackgrass = assay: Test Example 5: herbicidal effect by foliage application, plastic box (Table 20, symbol J); format: in vivo, blackgrass (Alopecurus myosuroides); conditions: foliage application after 14-day growth, evaluated three weeks after application; for Herbicidal effect by foliage application, J: blackgrass: amount of applied herbicide 320 g/ha
Method in brief: as §1

Italian ryegrass = assay: Test Example 5: herbicidal effect by foliage application, plastic box (Table 20, symbol K); format: in vivo, Italian ryegrass (Lolium multiflorum); conditions: foliage application after 14-day growth, evaluated three weeks after application; for Herbicidal effect by foliage application, K: Italian ryegrass: amount of applied herbicide 320 g/ha
Method in brief: as §1

chickweed = assay: Test Example 5: herbicidal effect by foliage application, plastic box (Table 20, symbol P); format: in vivo, common chickweed (Stellaria media); conditions: foliage application after 14-day growth, evaluated three weeks after application; for Herbicidal effect by foliage application, P: chickweed: amount of applied herbicide 320 g/ha
Method in brief: as §1

persian speedwell = assay: Test Example 5: herbicidal effect by foliage application, plastic box (Table 20, symbol R); format: in vivo, Persian speedwell (Veronica persica); conditions: foliage application after 14-day growth, evaluated three weeks after application; for Herbicidal effect by foliage application, R: persian speedwell: amount of applied herbicide 320 g/ha
Method in brief: as §1

Chinese sprangletop = assay: Test Example 3: herbicidal effect by foliage application, Wagner pot (Table 18, symbol D); format: in vivo, chinese sprangletop (Leptochloa chinensis); conditions: 320 g/ha
Method in brief: as §2

southern crabgrass = assay: Test Example 5: herbicidal effect by foliage application, plastic box (Table 20, symbol F); format: in vivo, southern crabgrass (Digitaria ciliaris); conditions: foliage application after 14-day growth, evaluated three weeks after application; for Herbicidal effect by foliage application, F: southern crabgrass: amount of applied herbicide 320 g/ha
Method in brief: as §1

lambsquarters = assay: Test Example 5: herbicidal effect by foliage application, plastic box (Table 20, symbol O); format: in vivo, lambsquarters (Chenopodium album); conditions: foliage application after 14-day growth, evaluated three weeks after application; for Herbicidal effect by foliage application, O: lambsquarters: amount of applied herbicide 320 g/ha
Method in brief: as §1

velvetleaf = assay: Test Example 5: herbicidal effect by foliage application, plastic box (Table 20, symbol M); format: in vivo, velvetleaf (Abutilon theophrasti); conditions: foliage application after 14-day growth, evaluated three weeks after application; for Herbicidal effect by foliage application, M: velvetleaf: amount of applied herbicide 320 g/ha
Method in brief: as §1

windgrass = assay: Test Example 5: herbicidal effect by foliage application, plastic box (Table 20, symbol L); format: in vivo, windgrass (Apera spica-venti); conditions: foliage application after 14-day growth, evaluated three weeks after application; for Herbicidal effect by foliage application, L: windgrass: amount of applied herbicide 320 g/ha
Method in brief: as §1

wild oat = assay: Test Example 5: herbicidal effect by foliage application, plastic box (Table 20, symbol I); format: in vivo, wild oat (Avena fatua); conditions: foliage application after 14-day growth, evaluated three weeks after application; for Herbicidal effect by foliage application, I: wild oat: amount of applied herbicide 320 g/ha
Method in brief: as §1

| Structure (SMILES) | Herbicidal effect by foliage application, H: barnyard grass (barnyard grass [1]) | Herbicidal effect by foliage application, N: redroot pigweed (redroot pigweed) | Herbicidal effect by foliage application, G: green foxtail (green foxtail) | herbicidal effect on barnyard grass (H) (barnyard grass [2]) | herbicidal effect on rice flat sedge (E) (rice flat sedge) | Herbicidal effect by foliage application, J: blackgrass (blackgrass) | Herbicidal effect by foliage application, K: Italian ryegrass (Italian ryegrass) | Herbicidal effect by foliage application, P: chickweed (chickweed) | Herbicidal effect by foliage application, R: persian speedwell (persian speedwell) | herbicidal effect on Chinese sprangletop (D) (Chinese sprangletop) | Herbicidal effect by foliage application, F: southern crabgrass (southern crabgrass) | Herbicidal effect by foliage application, O: lambsquarters (lambsquarters) | Herbicidal effect by foliage application, M: velvetleaf (velvetleaf) | Herbicidal effect by foliage application, L: windgrass (windgrass) | Herbicidal effect by foliage application, I: wild oat (wild oat) | other results |
| --- | --- | --- | --- | --- | --- | --- | --- | --- | --- | --- | --- | --- | --- | --- | --- | --- |
| CCCC(=O)Oc1c(C)nn(C)c(=O)c1-c1c(-c2ccc(C(C)C)cc2)sc2cc(F)c(F)cc12 [5-006] | 0 (Herbicidal rate of 5% or less (almost no effect)) | 3 (Herbicidal rate of 40% or more and less than 70%) | 0 (Herbicidal rate of 5% or less (almost no effect)) | 4 (Herbicidal rate of 70% or more and less than 90%) | 3 (Herbicidal rate of 40% or more and less than 70%) | 0 (Herbicidal rate of 5% or less (almost no effect)) | 0 (Herbicidal rate of 5% or less (almost no effect)) | 4 (Herbicidal rate of 70% or more and less than 90%) | 1 (Herbicidal rate of 5% or more and less than 20%) | 1 (Herbicidal rate of 5% or more and less than 20%) | 0 (Herbicidal rate of 5% or less (almost no effect)) | 3 (Herbicidal rate of 40% or more and less than 70%) | 3 (Herbicidal rate of 40% or more and less than 70%) | 0 (Herbicidal rate of 5% or less (almost no effect)) | 0 (Herbicidal rate of 5% or less (almost no effect)) | – |
| Cc1nn(C)c(=O)c(-c2c(-c3ccc(C(C)C)cc3)sc3cc(F)c(F)cc23)c1O [5-005] | 0 (Herbicidal rate of 5% or less (almost no effect)) | 3 (Herbicidal rate of 40% or more and less than 70%) | 0 (Herbicidal rate of 5% or less (almost no effect)) | 3 (Herbicidal rate of 40% or more and less than 70%) | 4 (Herbicidal rate of 70% or more and less than 90%) | 0 (Herbicidal rate of 5% or less (almost no effect)) | 0 (Herbicidal rate of 5% or less (almost no effect)) | 5 (Herbicidal rate of 90% or more (almost completely withered)) | 4 (Herbicidal rate of 70% or more and less than 90%) | 5 (Herbicidal rate of 90% or more (almost completely withered)) | 0 (Herbicidal rate of 5% or less (almost no effect)) | 0 (Herbicidal rate of 5% or less (almost no effect)) | 3 (Herbicidal rate of 40% or more and less than 70%) | 0 (Herbicidal rate of 5% or less (almost no effect)) | 0 (Herbicidal rate of 5% or less (almost no effect)) | – |
| C#CCOc1c(C)nn(C)c(=O)c1-c1c(-c2ccccc2OC)sc2cc(OC)ccc12 [3-154] | – | – | – | 3 (Herbicidal rate of 40% or more and less than 70%) | 3 (Herbicidal rate of 40% or more and less than 70%) | – | – | – | – | 2 (Herbicidal rate of 20% or more and less than 40%) | – | – | – | – | – | herbicidal effect on H: barnyard grass (evaluation grade 0-5) (barnyard grass [1]; 320 g/ha): 3 (Herbicidal rate of 40% or more and less than 70%); herbicidal effect on N: redroot pigweed (evaluation grade 0-5) (redroot pigweed; 320 g/ha): 4 (Herbicidal rate of 70% or more and less than 90%); herbicidal effect on G: green foxtail (evaluation grade 0-5) (green foxtail; 320 g/ha): 3 (Herbicidal rate of 40% or more and less than 70%); herbicidal effect on J: blackgrass (evaluation grade 0-5) (blackgrass; 320 g/ha): 0 (Herbicidal rate of 5% or less (almost no effect)); herbicidal effect on K: Italian ryegrass (evaluation grade 0-5) (Italian ryegrass; 320 g/ha): 0 (Herbicidal rate of 5% or less (almost no effect)); herbicidal effect on P: chickweed (evaluation grade 0-5) (chickweed; 320 g/ha): 5 (Herbicidal rate of 90% or more (almost completely withered)); herbicidal effect on R: persian speedwell (evaluation grade 0-5) (persian speedwell; 320 g/ha): 3 (Herbicidal rate of 40% or more and less than 70%); herbicidal effect on F: southern crabgrass (evaluation grade 0-5) (southern crabgrass; 320 g/ha): 0 (Herbicidal rate of 5% or less (almost no effect)); herbicidal effect on O: lambsquarters (evaluation grade 0-5) (lambsquarters; 320 g/ha): 3 (Herbicidal rate of 40% or more and less than 70%); herbicidal effect on M: velvetleaf (evaluation grade 0-5) (velvetleaf; 320 g/ha): 0 (Herbicidal rate of 5% or less (almost no effect)); herbicidal effect on L: windgrass (evaluation grade 0-5) (windgrass; 320 g/ha): 0 (Herbicidal rate of 5% or less (almost no effect)); herbicidal effect on I: wild oat (evaluation grade 0-5) (wild oat; 320 g/ha): 0 (Herbicidal rate of 5% or less (almost no effect)) |
